Results as given in paper PMC1079869 (BMC Neuroscience, 2005).
Square brackets hold non-standard residues; d marks the D form. Peptide text beside a SMILES is read from it.

How the values were obtained:
[1] = target: T1, c-MYC-tagged human delta opioid receptor (Homo sapiens, UniProt P41143); assay: Tb-DeltI saturation binding on CHO/MYChDOR cell membranes (time-resolved fluorometry); details: 0.01 – 781.25 nM Tb-DeltI; 6 μg membranes; pH 7.5, 90 min room temperature; nonspecific with 1 μM DeltI; Figure 4B
Experimental: The cells were collected with PBS + 0.2 % EDTA (w/v) and washed with cold PBS. The CHO/MYChDOR or CHO-K1 cells were suspended into ice-cold 50 mM Tris/HCl, 5 mM EDTA, pH 7.5 and homogenized with Potter S-homogenisator on ice. The homogenate was centrifuged 47800 × g at 4°C and the pellet was suspended into the Tris/EDTA buffer and the homogenization/centrifugation was repeated. The pellet was suspended into cold binding assay incubation buffer and the protein content was measured with the Bradford method.
6 μg of crude membrane preparations or whole cells (25 000 cell/well) that were plated one day before experiment and fixed with 4 % PFA for 10 min at room temperature, were used in the saturation binding experiments. The whole cell assays were carried out on normal cell culture plates and the assays with membrane preparations on special filter plates (Pall Life Sciences). […] Thereafter, 40 μl Delfia enhancer that changes the pH of the assay solution appropriate for Tb-fluorescence was added, and the plates were further incubated for 5 min on a shaker. The time-resolved fluorescence of the released Tb-ion was measured with Victor^2 Multilabel counter (Perkin Elemer Wallac, Turku, Finland).

[2] = target: T1, c-MYC-tagged human delta opioid receptor; assay: Tb-DeltI binding on CHO/MYChDOR whole cells, effect of (1DMe)NPYF (time-resolved fluorometry); details: whole cells, relative BMAX, n = 3
Experimental: 6 μg of crude membrane preparations or whole cells (25 000 cell/well) that were plated one day before experiment and fixed with 4 % PFA for 10 min at room temperature, were used in the saturation binding experiments. The whole cell assays were carried out on normal cell culture plates and the assays with membrane preparations on special filter plates (Pall Life Sciences). The cells or membranes were incubated in 50 mM Tris/HCl pH 7.5; 2.5 mM MgCl2; 60 mM NaCl; 25 μM EDTA, 0.2 % BSA (w/v) for 90 min at room temperature with 0.01 – 781.25 nM Tb-DeltI in the presence or absence of 1 or 5 μM unlabeled DeltI. To study the effect of (1DMe)NPYF on the Tb-DeltI binding, 1–1000 nM (1DMe)NPYF was added together with unlabeled DeltI. After the incubation the unbound Tb-DeltI was removed by washing the plates four times with 50 mM Tris/HCl pH 7.5; 2.5 mM MgCl2. Vacuum pump system was used to wash the filter plates. Since the chelate-bound Tb-ion is nonfluorescent, it needed to be released from the complex. In order to release Tb-ion from the chelate 150 μl Delfia enhancement solution was added to the wells and the plates were incubated on a shaker for 15 min. Thereafter, 40 μl Delfia enhancer that changes the pH of the assay solution appropriate for Tb-fluorescence was added, and the plates were further incubated for 5 min on a shaker. The time-resolved fluorescence of the released Tb-ion was measured with Victor^2 Multilabel counter (Perkin Elemer Wallac, Turku, Finland).

T1 sequence (P41143 whole entry): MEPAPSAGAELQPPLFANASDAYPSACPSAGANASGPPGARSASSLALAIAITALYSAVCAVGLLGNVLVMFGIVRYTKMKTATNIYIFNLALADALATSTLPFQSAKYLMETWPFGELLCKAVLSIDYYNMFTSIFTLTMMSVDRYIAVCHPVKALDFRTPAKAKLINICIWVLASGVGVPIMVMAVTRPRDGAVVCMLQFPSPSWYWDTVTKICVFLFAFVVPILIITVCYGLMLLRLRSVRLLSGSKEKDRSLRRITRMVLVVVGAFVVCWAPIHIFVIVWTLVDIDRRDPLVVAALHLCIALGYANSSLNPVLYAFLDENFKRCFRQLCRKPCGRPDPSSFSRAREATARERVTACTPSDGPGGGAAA

SMILES: CC(C)[C@H](NC(=O)[C@H](CC(=O)O)NC(=O)[C@H](Cc1ccccc1)NC(=O)[C@@H](C)NC(=O)[C@H](Cc1ccc(O)cc1)NC(=O)[C@@H](N)CS)C(=O)N[C@H](C(=O)NCC(N)=O)C(C)C [Tb-DeltI] (H-CY[dA]FDVVG-NH2; N-terminus and C-terminus assumed)
- Tb-DeltI binding to cell membranes [1]: dose-dependently and the binding was saturable at a nanomolar range
- BMAX for Tb-DeltI ([2]; 0 nM (1DMe)NPYF): 1.60 ± 0.06 pmol/cell
- BMAX for Tb-DeltI ([2]; in presence of 1 nM (1DMe)NPYF, *** p < 0.001 vs absence of (1DMe)NPYF): 0.70 ± 0.08 *** pmol/cell
- BMAX for Tb-DeltI ([2]; in presence of 10 nM (1DMe)NPYF, *** p < 0.001 vs absence of (1DMe)NPYF): 0.89 ± 0.06 *** pmol/cell
- BMAX for Tb-DeltI ([2]; in presence of 100 nM (1DMe)NPYF): 1.42 ± 0.11 pmol/cell
- BMAX for Tb-DeltI ([2]; in presence of 1000 nM (1DMe)NPYF): 1.49 ± 0.10 pmol/cell
